Measurements published in patent US9029557B2, “Labeled A4B2 ligands and methods therefor” (priority 2004, dated 2015).
Like-named read-outs stand apart in the source and are kept apart here.

Columns and labels:
α4β2 nAChRs [1] = biological target: α4β2 nAChRs (Homo sapiens, UniProt P17787+P43681); conditions: comparison agents; cited from earlier work
α4β2 receptors [2] = biological target: T1, α4β2 receptors (Homo sapiens, UniProt P17787+P43681); design: host or cells: human brain in vivo (SPECT), work done elsewhere; conditions: human studies; cited from earlier work
T1 sequence (P43681 29-627 limits assumed): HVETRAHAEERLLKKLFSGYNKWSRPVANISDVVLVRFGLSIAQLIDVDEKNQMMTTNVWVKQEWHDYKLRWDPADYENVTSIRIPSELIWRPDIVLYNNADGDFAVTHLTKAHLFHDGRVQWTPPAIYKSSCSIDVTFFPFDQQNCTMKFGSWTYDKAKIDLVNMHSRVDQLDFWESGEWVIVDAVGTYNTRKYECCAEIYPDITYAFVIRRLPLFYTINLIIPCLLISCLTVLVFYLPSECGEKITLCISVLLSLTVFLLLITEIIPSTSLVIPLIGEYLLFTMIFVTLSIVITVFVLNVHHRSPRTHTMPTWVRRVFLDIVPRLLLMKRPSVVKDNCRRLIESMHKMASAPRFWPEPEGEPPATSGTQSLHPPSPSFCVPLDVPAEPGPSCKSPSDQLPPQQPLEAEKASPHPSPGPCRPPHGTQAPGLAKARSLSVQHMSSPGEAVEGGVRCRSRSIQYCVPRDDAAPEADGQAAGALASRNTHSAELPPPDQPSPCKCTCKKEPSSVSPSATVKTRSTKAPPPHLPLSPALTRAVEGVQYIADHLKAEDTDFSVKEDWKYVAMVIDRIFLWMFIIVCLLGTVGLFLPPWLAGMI
T1 sequence (P17787 26-502): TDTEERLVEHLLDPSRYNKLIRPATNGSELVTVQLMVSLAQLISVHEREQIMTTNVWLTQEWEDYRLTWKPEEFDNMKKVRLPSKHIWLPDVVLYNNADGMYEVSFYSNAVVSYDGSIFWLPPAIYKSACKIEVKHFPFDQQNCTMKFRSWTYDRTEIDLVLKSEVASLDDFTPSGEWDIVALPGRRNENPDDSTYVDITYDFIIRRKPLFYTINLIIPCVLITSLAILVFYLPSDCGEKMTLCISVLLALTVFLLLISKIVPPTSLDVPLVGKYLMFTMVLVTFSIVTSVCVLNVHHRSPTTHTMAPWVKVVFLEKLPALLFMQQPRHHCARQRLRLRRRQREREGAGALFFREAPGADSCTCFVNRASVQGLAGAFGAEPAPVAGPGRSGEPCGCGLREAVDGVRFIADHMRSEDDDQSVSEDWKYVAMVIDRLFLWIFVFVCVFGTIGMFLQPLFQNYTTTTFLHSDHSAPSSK

α4β2 nAChRs [3] = biological target: T2, α4β2 nAChRs (Rattus norvegicus, UniProt P09483+P12390); conditions: rat PET, cerebellum as reference region
T2 sequence (P09483 31-630): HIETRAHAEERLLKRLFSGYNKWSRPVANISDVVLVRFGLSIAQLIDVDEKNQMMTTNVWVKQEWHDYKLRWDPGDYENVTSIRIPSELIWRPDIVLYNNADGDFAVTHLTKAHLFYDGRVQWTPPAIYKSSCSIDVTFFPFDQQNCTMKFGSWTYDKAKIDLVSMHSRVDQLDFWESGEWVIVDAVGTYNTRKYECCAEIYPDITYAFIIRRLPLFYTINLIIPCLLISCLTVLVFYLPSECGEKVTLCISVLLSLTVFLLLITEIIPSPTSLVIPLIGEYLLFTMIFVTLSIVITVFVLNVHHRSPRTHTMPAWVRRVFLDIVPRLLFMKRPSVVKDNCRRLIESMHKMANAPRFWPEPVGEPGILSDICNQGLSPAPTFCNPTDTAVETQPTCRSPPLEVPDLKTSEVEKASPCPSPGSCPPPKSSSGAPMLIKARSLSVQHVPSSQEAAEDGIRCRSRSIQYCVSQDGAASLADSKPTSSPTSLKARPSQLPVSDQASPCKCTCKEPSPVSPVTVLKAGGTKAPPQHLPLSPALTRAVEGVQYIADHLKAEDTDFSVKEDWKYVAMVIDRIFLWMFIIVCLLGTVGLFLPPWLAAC
T2 sequence (P12390 25-500): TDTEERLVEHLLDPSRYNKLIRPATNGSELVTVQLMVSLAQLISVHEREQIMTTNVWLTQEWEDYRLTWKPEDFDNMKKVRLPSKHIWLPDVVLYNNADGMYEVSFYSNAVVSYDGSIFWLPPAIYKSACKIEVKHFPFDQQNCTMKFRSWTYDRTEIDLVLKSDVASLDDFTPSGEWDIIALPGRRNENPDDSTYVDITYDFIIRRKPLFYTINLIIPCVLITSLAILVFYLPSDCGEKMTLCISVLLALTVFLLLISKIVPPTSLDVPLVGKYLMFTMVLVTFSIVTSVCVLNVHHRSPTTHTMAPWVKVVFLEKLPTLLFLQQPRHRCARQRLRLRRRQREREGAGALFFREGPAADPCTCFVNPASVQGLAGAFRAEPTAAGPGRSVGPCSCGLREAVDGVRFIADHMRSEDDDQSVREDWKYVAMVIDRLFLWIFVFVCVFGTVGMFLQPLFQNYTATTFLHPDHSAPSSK

α4β2 receptor [4] = tested on: α4β2 receptor
Procedure: The male rhesus monkey (12 kg) was anesthetized using ketamine (10 mg/kg) and xylazine (0.5 mg/kg) and was subsequently maintained on 0.5%-1.5% isoflurane. Two intravenous catheters were placed, one on each arm, for purposes of administration of the radiopharmaceutical and for obtaining blood samples during the study. The head of the animal was placed in the gantry of an ECAT EXACT HR PET scanner and positioned in place with adhesive tape as described previously. A transmission scan using a 68Ge/68Ga rod source was acquired before administration of the radiopharmaceutical to correct for tissue attenuation of the coincident radiation.
Data in the final form are expressed in units of the percentage injected dose per milliliter (% ID/mL) or kilobecquerels per milliliter (kBq/mL). […] Time-activity curves were obtained for all these regions. […] This MRI template of the rhesus (Macaca mulatta) brain is an average of 6 monkeys with T1-weighted MR scans. Postimage processing removed the skull and scalp from the template (courtesy of University of Wisconsin-Madison).

α4β2 receptor [5] = biological target: T3, α4β2 receptor (Rattus norvegicus, UniProt P09483+P12390); conditions: for % ID/g Blood / % ID/g Cerebellum / % ID/g Cortex / % ID/g Thalamus: i.v. 3.7 MBq
T3 sequence (P09483 31-630): as the sequence (P09483 31-630) above
T3 sequence (P12390 25-500): as the sequence (P12390 25-500) above
Source text: The animals were allowed to recover from anesthesia and had free access to food and water. […] Thalamus, Ctx, cerebellum, and blood were isolated from each rat and placed in preweighed tubes and were counted for 18F radioactivity.

α4β2 receptor sites = α4β2 receptor sites (Rattus norvegicus, UniProt P09483+P12390)
Sequence of α4β2 receptor sites (P09483 31-630): as the sequence (P09483 31-630) above
Sequence of α4β2 receptor sites (P12390 25-500): as the sequence (P12390 25-500) above
Procedure: Coronal and horizontal brain slices ([…]) were obtained from male Sprague-Dawley rats. Sets of brain slices were preincubated in buffer (50 mmol/L Tris HCl containing 120 mmol/L NaCl, 5 mmol/L KCl, 2.5 mmol/L CaCl2, 1 mmol/L MgCl2, pH 7.4) for 10 min (26). […] Nonspecific binding was measured in the presence of […] (weighed as nicotine ditartarate). In some experiments, a lower concentration of nicotine (10 μmol/L) was also used. After incubation, slides were washed twice (1 min each) with ice-cold Tris HCl buffer, pH 7.4, followed by a quick rinse in cold deionized water. The slides were then air dried and apposed to phosphor screens overnight and read by the Cyclone Phosphor Imaging System (Packard Instruments Co).

α4β2 receptor [6] = biological target: T3, α4β2 receptor; assay: Displacement of 18F-nifene bound in rat brain slices; format: binding; design: The brains from male Sprague-Dawley rats (n=4 per group) were extracted and frozen; from tissue; host or cells: rat brain (Sprague-Dawley); conditions: 10 nM
rat brain α4β2 receptors = biological target: T4, rat brain α4β2 receptors (Rattus norvegicus, UniProt P09483+P12390); assay: Brain homogenate binding assay using 3H-cytisine; conditions: read-out: Binding affinity Ki for rat brain α4β2 receptors
T4 construct: The brains from male Sprague-Dawley rats (n=4 per group) were extracted and frozen; from tissue; host or cells: rat brain (Sprague-Dawley)
T4 sequence (P09483 31-630): as the sequence (P09483 31-630) above
T4 sequence (P12390 25-500): as the sequence (P12390 25-500) above

α4β2 receptors [7] = biological target: T1, α4β2 receptors; assay: Affinity of Niofene; format: binding
alpha4-beta2 receptors = alpha4-beta2 receptors (Rattus norvegicus, UniProt P09483+P12390); conditions: nicotine 60 μM, horizontal rat brain slices
Sequence of alpha4-beta2 receptors (P09483 31-630): as the sequence (P09483 31-630) above
Sequence of alpha4-beta2 receptors (P12390 25-500): as the sequence (P12390 25-500) above

α4β2 receptor [8] = biological target: T3, α4β2 receptor; assay: Autoradiography of 123I-niodene in rat brain sections; format: binding; design: The brains from male Sprague-Dawley rats (n=4 per group) were extracted and frozen; from tissue; host or cells: rat brain (Sprague-Dawley); conditions: low specific activity 123I-niodene, 5 nM
α4β2 nAChRs [9] = biological target: T2, α4β2 nAChRs; assay: In vitro binding affinity, inhibition of 125I-IEB in rat brain slices (autoradiography), α4β2 sites; design: from tissue; host or cells: brain of the living rat (PET); conditions: p-toluenesulfonate salt
Procedure: (§1) In vitro binding affinity of nifrolidine was measured in rat brain slices labeled with 125I-iodoepibatidine (125I-IEB) or 125I-α-bungarotoxin. The brains from male Sprague-Dawley rats (n=4 per group) were extracted and frozen in isopentane at […].
(§2) Coronal sections (20-μm thick) were prepared from 4 brain levels on a cryostat at […]. […] Competition studies were performed by incubating alternate sections with 125IIEB in the absence or presence of cytisine (200 nmol/L) and nicotine (300 μmol/L) and various concentrations of nifrolidine (0-30 nmol/L). Slides were then rinsed twice for 10 min in ice-cold buffer, dipped briefly in ice-cold water, blown dry, and laid out for autoradiography along with 125I plastic standards of known radioactivity (FIG. 3). […]
(§3) Autoradiograms were quantified with a computer-based image analysis system (MCID; Imaging Research) using calibrated standards of reference. A calibration curve of to optical density against radioligand concentration (fmol/mg tissue) was constructed using values of known radioactivity. Optical densities in discrete regions of the autoradiographic images were measured, and corresponding values of radioactivity were determined by interpolation from the calibration curve. Specific binding values in each region were determined by subtracting binding in the presence of excess inhibitor from total binding values. […]

α7 nAChRs = biological target: T5, α7 nAChRs (Rattus norvegicus, UniProt Q05941); assay: 125I-α-bungarotoxin binding competition in rat brain slices; conditions: up to a concentration of 30 nmol/L
T5 construct: The brains from male Sprague-Dawley rats (n=4 per group) were extracted and frozen; from tissue; host or cells: rat brain slices (VLG, SuG)
T5 sequence (Q05941 23-502): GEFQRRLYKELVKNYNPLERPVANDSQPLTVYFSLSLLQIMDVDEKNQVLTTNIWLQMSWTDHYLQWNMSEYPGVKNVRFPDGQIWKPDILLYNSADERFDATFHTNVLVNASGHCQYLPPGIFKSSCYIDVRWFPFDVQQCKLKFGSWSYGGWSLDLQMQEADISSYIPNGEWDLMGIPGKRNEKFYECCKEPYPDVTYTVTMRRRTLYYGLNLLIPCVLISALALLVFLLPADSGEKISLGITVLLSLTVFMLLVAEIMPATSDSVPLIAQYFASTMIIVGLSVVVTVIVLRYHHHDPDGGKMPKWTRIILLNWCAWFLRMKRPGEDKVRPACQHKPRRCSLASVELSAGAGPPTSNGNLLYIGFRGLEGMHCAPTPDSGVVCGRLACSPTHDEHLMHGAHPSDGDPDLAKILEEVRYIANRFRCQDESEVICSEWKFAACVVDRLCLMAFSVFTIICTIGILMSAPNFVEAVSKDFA
Procedure: as §1, §2, §3

α3β4 sites = biological target: T6, α3β4 sites (Rattus norvegicus, UniProt P04757+P12392); assay: In vitro binding affinity, inhibition of 125I-IEB in rat brain slices (autoradiography), α3β4 sites; conditions: 125I-IEB in presence of 200 nmol/L cytisine
T6 construct: The brains from male Sprague-Dawley rats (n=4 per group) were extracted and frozen; from tissue; host or cells: rat brain slices (pineal, interpeduncular nucleus, medial habenula)
T6 sequence (P04757 26-499): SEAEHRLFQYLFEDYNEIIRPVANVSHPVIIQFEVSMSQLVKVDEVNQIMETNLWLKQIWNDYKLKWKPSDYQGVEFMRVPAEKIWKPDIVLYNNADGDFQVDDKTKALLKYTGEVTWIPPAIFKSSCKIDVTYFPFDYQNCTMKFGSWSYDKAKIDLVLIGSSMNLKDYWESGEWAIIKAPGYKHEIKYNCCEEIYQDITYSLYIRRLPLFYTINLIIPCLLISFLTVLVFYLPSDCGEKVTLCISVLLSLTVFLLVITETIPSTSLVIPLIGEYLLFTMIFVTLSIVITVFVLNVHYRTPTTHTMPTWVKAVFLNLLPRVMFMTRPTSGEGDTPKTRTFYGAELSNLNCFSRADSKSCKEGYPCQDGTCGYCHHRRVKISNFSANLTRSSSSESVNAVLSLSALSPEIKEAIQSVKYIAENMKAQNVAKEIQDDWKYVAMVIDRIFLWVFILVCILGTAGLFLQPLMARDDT
T6 sequence (P12392 21-495): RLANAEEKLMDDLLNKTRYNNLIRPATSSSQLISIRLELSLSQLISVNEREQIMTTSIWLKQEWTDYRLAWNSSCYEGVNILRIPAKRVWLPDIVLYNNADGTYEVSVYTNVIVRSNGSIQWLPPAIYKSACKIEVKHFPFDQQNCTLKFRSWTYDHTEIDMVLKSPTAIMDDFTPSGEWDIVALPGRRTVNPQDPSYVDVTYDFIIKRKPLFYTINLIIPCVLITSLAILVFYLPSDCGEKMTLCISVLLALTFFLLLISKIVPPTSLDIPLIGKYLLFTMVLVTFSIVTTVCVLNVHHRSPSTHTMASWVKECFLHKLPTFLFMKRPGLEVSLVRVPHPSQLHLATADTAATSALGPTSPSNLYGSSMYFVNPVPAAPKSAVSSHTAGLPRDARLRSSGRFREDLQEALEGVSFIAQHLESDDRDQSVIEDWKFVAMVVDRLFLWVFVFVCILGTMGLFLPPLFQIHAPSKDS
Procedure: as §1, §2, §3

α3β2 sites = biological target: T7, α3β2 sites (Rattus norvegicus, UniProt P04757+P12390); assay: In vitro binding affinity, inhibition of 125I-IEB in rat brain slices (autoradiography), α3β2 sites; conditions: 125I-IEB in presence of 200 nmol/L cytisine
T7 construct: The brains from male Sprague-Dawley rats (n=4 per group) were extracted and frozen; from tissue; host or cells: rat brain slices (DLG, SuG, optic tract)
T7 sequence (P04757 26-499): as the sequence (P04757 26-499) above
T7 sequence (P12390 25-500): as the sequence (P12390 25-500) above
Procedure: as §1, §2, §3

[10] = rhesus monkey PET, 155 MBq i.v.

Sequence of α4β2 nAChRs (Homo sapiens, UniProt P17787+P43681) (P43681 29-627 limits assumed): as the sequence (P43681 29-627 limits assumed) above
Sequence of α4β2 nAChRs (Homo sapiens, UniProt P17787+P43681) (P17787 26-502): as the sequence (P17787 26-502) above

Q: For [18F]c1ncccc1OC[C@@H]1CCN1 [2-FA85380, 2-18F-fluoro-3-(2(S)-azetidinylmethoxy)pyridine], which “time to reach pseudoequilibrium” value (α4β2 nAChRs [1]) is on record?
A: Its value is 4 to 6 h.

Q: For Ic1cncc(OC[C@@H]2CCN2)c1 [5-IA85380], which scanning time required (α4β2 receptors [2]) is on record?
A: Its scanning time required is “over 6 hrs”.

Q: For [18F]c1ncc(I)cc1OC[C@@H]1C=CCN1 [18F-Niofene, 2-^18F-5-iodo-3-[2-(S)-3,4-dehydropyrrolinylmethoxy]pyridine], which TH/CB at pseudoequilibrium (α4β2 nAChRs [3]) is on record?
A: Its TH/CB at pseudoequilibrium is greater than 2.

Q: For [18F]CCCc1cncc(OC[C@@H]2CCCN2)c1 [18F-nifrolidine, 5-(3-18F-fluoropropyl)-3-(2-(S)-pyrrolidinylmethoxy)pyridine], which vital signs (α4β2 receptor [4]; anesthetized rhesus monkey, 155 MBq) is on record?
A: The vital signs was “did not exhibit any unusual deviations from the baseline values”.

Q: And the “time of maximal binding in the thalamus following injection” value (α4β2 receptor [4]; rhesus monkey PET)?
A: Its value is greater than 70 min.

Q: What about the “time to approach transient equilibrium” value (α4β2 receptor [4]; rhesus monkey PET) of the same molecule?
A: The value was “about 2.5 hrs”.

Q: And the “time to plateauing of the thalamus-to-Cb ratio” value (α4β2 receptor [4]; rhesus monkey PET)?
A: The value was 150 min.

Q: What about the “selective maximal uptake in AVT and AMT” value (α4β2 receptor [4]; [10]) of the same molecule?
A: Its value is 0.011 % ID/mL.

Q: And the “uptake in VLT” value (α4β2 receptor [4]; [10])?
A: Its value is 0.10 % ID/mL.

Q: And the “ratio between the thalamus and the Cb” value (α4β2 receptor [4]; rhesus monkey PET, about 140 min after injection)?
A: Its value is “approximately 1.7”.

Q: And the “cortical regions to Cb ratio” value (α4β2 receptor [4]; rhesus monkey PET, in 120 min)?
A: The value was 1.3.

Q: And the “thalamus-to-Cb ratio (plateau)” value (α4β2 receptor [4]; rhesus monkey PET, in 120 min)?
A: Its value is 1.7.

Q: And the “Thalamus-to-cerebellum ratio, Control” value (α4β2 receptor [5]; rat, 2 min)?
A: Its value is 1.30.

Q: What about the “Thalamus-to-cerebellum ratio, Control” value (α4β2 receptor [5]; rat, 60 min) of the same molecule?
A: The value was 3.08.

Q: What about the “Thalamus-to-cerebellum ratio, Before nicotine” value (α4β2 receptor [5]; rat, 60 min, nicotine ditartarate 10 mg/kg s.c. 5 min before 18F-nifrolidine) of the same molecule?
A: The value was 1.8.

Q: What about the “Thalamus-to-cerebellum ratio, Control” value (α4β2 receptor [5]; rat, 120 min) of the same molecule?
A: Its value is 1.40.

Q: And the “% ID/g Blood” value (α4β2 receptor [5]; rat, 2 min)?
A: Its value is 0.25 % ID/g.

Q: What about the “% ID/g Cerebellum” value (α4β2 receptor [5]; rat, 2 min) of the same molecule?
A: The value was 0.24 ± 0.03 % ID/g.

Q: And the “% ID/g Cortex” value (α4β2 receptor [5]; rat, 2 min)?
A: The value was 0.21 ± 0.04 % ID/g.

Q: And the “% ID/g Thalamus” value (α4β2 receptor [5]; rat, 2 min)?
A: The value was 0.26 ± 0.05 % ID/g.

Q: And the “% ID/g Blood” value (α4β2 receptor [5]; rat, 2 min, listed as 18F-NIFROLIDINE)?
A: Its value is 0.25 ± 0.09 % ID/g.

Q: What about the “% ID/g Blood” value (α4β2 receptor [5]; rat, 60 min) of the same molecule?
A: Its value is 0.14 ± 0.03 % ID/g.

Q: What about the “% ID/g Cerebellum” value (α4β2 receptor [5]; rat, 60 min) of the same molecule?
A: The value was 0.12 ± 0.02 % ID/g.

Q: What about the “% ID/g Cortex” value (α4β2 receptor [5]; rat, 60 min) of the same molecule?
A: Its value is 0.25 ± 0.03 % ID/g.

Q: What about the “% ID/g Thalamus” value (α4β2 receptor [5]; rat, 60 min) of the same molecule?
A: Its value is greater than 0.3 % ID/g.

Q: What about the “% ID/g Thalamus” value (α4β2 receptor [5]; rat, 60 min, listed as 18F-NIFROLIDINE) of the same molecule?
A: Its value is 0.37 ± 0.07 % ID/g.

Q: What about the “% ID/g Blood” value (α4β2 receptor [5]; rat, 120 min) of the same molecule?
A: The value was less than 0.03 % ID/g.

Q: What about the “% ID/g Cerebellum” value (α4β2 receptor [5]; rat, 120 min) of the same molecule?
A: The value was 0.10 ± 0.02 % ID/g.

Q: What about the “% ID/g Cortex” value (α4β2 receptor [5]; rat, 120 min) of the same molecule?
A: Its value is 0.13 ± 0.04 % ID/g.

Q: And the “% ID/g Thalamus” value (α4β2 receptor [5]; rat, 120 min)?
A: Its value is 0.14 ± 0.03 % ID/g.

Q: And the “% ID/g Blood” value (α4β2 receptor [5]; rat, 120 min, listed as 18F-NIFROLIDINE)?
A: Its value is 0.04 ± 0.01 % ID/g.

Q: And the blood-brain barrier penetration (α4β2 receptor [5]; rodents, in vivo)?
A: Its blood-brain barrier penetration is “able to cross the blood-brain barrier”.

Q: What about the “binding in cerebellum as % of that found in the AV” value (α4β2 receptor sites; horizontal rat brain slices) of the same molecule?
A: Its value is “approximately 8%”.

Q: What about the “order of binding in brain regions” value (α4β2 receptor sites; horizontal slices) of the same molecule?
A: The value was “thalamus>Ctx>striata>cerebellum”.

Q: Which results are given for Ic1cncc(OC[C@@H]2C=CCN2)c1 [Niodene, 3-iodo-5-[2-(S)-3-pyrrolinylmethoxy]pyridine]?
A: displacement of 18F-nifene bound to α4β2 receptors (α4β2 receptor [6]): > 95%; Ki (rat brain α4β2 receptors): 0.27 nM

Q: Which affinity (α4β2 receptors [7]) does the source give for Fc1ncc(I)cc1OC[C@@H]1C=CCN1 [Niofene, 2-Fluoro-5-iodo-3-[2-(S)-3,4-dehydropyrrolinylmethoxy]pyridine] here?
A: Its affinity is “subnanomolar”.

Q: For [18F]c1ncccc1OC[C@@H]1C=CCN1 [^18F-Nifene, 2-[^18F]fluoro-3-[2-(S)-pyrrolinyl-3,4-dehydromethoxy]pyridine], which “reversal of binding by nicotine” value (alpha4-beta2 receptors) is on record?
A: Its value is “rapidly reverse”.

Q: Which “cortex to cerebellum binding ratio” value (α4β2 receptor [8]) does the source give for [123I]c1cncc(OCC2C=CCN2)c1 (centres unmarked) [^123I-niodene] here?
A: Its value is 1.6.

Q: And the “thalamus to cerebellum binding ratio” value (α4β2 receptor [8])?
A: Its value is 4.

Q: Which Ki (α4β2 nAChRs [9]) does the source give for FCCCc1cncc(OC[C@@H]2CCCN2)c1 [nifrolidine, 5-(3′-fluoropropyl)-3-(2-(S)-pyrrolidinylmethoxy)-pyridine] here?
A: The Ki was 2.89 nM.

Q: What about the “affinity for α7 sites (displacement of 125I-α-bungaratoxin)” value (α7 nAChRs) of the same molecule?
A: The value was “no measureable displacement and weak”.

Q: What about the Ki (α3β4 sites) of the same molecule?
A: Its Ki is greater than 30 nM.

Q: And the Ki (α3β2 sites)?
A: Its Ki is greater than 30 nM.
